Measurements taken from ChEMBL document CHEMBL1201862, “PubChem BioAssay data set” (2004).
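Method: 48-hour compound exposure of cells in 96-well plates, five concentrations, linear interpolation of endpoints. GI50 is the concentration that inhibits growth by half.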 Calls of active or inactive are those of the source. Cut-off read from the data, not from the text of the source: active = GI50 up to about 1.1 µM and inactive = higher.

Legend:
Experiment in all cases: NCI anticancer screen, dose series, 48 h
CAKI-1 = system: CAKI-1
DU-145 = system: DU-145
K562 = system: K562
M14 = system: M14
MCF7 = system: MCF7
MDA-MB-231 = system: MDA-MB-231
MDA-N = system: MDA-N
MOLT-4 = system: MOLT-4
NCI-H226 = system: NCI-H226
NCI-H23 = system: NCI-H23
OVCAR-5 = system: OVCAR-5
OVCAR-8 = system: OVCAR-8
SF-268 = system: SF-268
SK-OV-3 = system: SK-OV-3
SNB-75 = system: SNB-75
SW-620 = system: SW-620
TK-10 = system: TK-10
UACC-62 = system: UACC-62
NCI-H460 = system: NCI-H460

Compound	GI50 (CAKI-1)	GI50 (DU-145)	GI50 (K562)	GI50 (M14)	GI50 (MCF7)	GI50 (MDA-MB-231)	GI50 (MDA-N)	GI50 (MOLT-4)	GI50 (NCI-H226)	GI50 (NCI-H23)	GI50 (OVCAR-5)	GI50 (OVCAR-8)	GI50 (SF-268)	GI50 (SK-OV-3)	GI50 (SNB-75)	GI50 (SW-620)	GI50 (TK-10)	GI50 (UACC-62)	GI50 (NCI-H460)
CCCCCCCCCCCCCCCCNc1nc(=O)n(C2CC(O)C(COP(=O)(O)OC3CC(n4cc(F)c(=O)[nH]c4=O)OC3CO)O2)cc1F (configuration not stated)	0.258 µM (active)	0.222 µM (active)	1.41 µM (inactive)	0.687 µM (active)	< 0.01 µM (active)	28.4 µM (inactive)	19.4 µM (inactive)	1.95 µM (inactive)	9.51 µM (inactive)	0.44 µM (active)	29.7 µM (inactive)	0.296 µM (active)	< 0.0218 µM (active)	11.6 µM (inactive)	4.98 µM (inactive)	32.1 µM (inactive)	25.7 µM (inactive)	0.337 µM (active)	–
O=C1c2c(ccc3c2CCC3)CC1Cc1ccc2c(c1)CCC2 (configuration not stated)	–	27.3 µM (inactive)	14 µM (inactive)	32.1 µM (inactive)	22.6 µM (inactive)	10.3 µM (inactive)	30.8 µM (inactive)	13.1 µM (inactive)	28.2 µM (inactive)	21.6 µM (inactive)	90.2 µM (inactive)	36.3 µM (inactive)	33.7 µM (inactive)	53.3 µM (inactive)	7.38 µM (inactive)	17.1 µM (inactive)	29.2 µM (inactive)	8.24 µM (inactive)	33.8 µM (inactive)
O=c1[nH]nc(Cc2ccccc2)n1/N=C\c1ccccc1	> 100 µM (inactive)	> 100 µM (inactive)	> 100 µM (inactive)	–	> 100 µM (inactive)	> 100 µM (inactive)	> 100 µM (inactive)	> 100 µM (inactive)	> 100 µM (inactive)	> 100 µM (inactive)	> 100 µM (inactive)	90.4 µM (inactive)	> 10 µM (inactive)	–	32.3 µM (inactive)	> 100 µM (inactive)	> 100 µM (inactive)	95.5 µM (inactive)	> 100 µM (inactive)
C=C1CCCCCCCCC/C=C/1SCCCSC	> 100 µM (inactive)	> 100 µM (inactive)	> 100 µM (inactive)	> 100 µM (inactive)	> 100 µM (inactive)	> 100 µM (inactive)	> 100 µM (inactive)	> 100 µM (inactive)	> 100 µM (inactive)	> 100 µM (inactive)	> 100 µM (inactive)	> 100 µM (inactive)	> 100 µM (inactive)	> 100 µM (inactive)	–	> 100 µM (inactive)	> 100 µM (inactive)	> 100 µM (inactive)	> 100 µM (inactive)
CCOc1c2ccsc2c(OCC)c2ccsc12	4.61 µM (inactive)	5 µM (inactive)	2.95 µM (inactive)	4.69 µM (inactive)	3.59 µM (inactive)	8.57 µM (inactive)	0.94 µM (active)	3.52 µM (inactive)	–	4.34 µM (inactive)	11.8 µM (inactive)	6.24 µM (inactive)	9.82 µM (inactive)	3.92 µM (inactive)	3.31 µM (inactive)	3.72 µM (inactive)	> 100 µM (inactive)	3.85 µM (inactive)	3.58 µM (inactive)
N=C(N)c1ccc2oc3ccc(C(=N)N)cc3c(=O)c2c1	> 100 µM (inactive)	> 100 µM (inactive)	> 100 µM (inactive)	> 100 µM (inactive)	60.4 µM (inactive)	> 100 µM (inactive)	> 100 µM (inactive)	> 100 µM (inactive)	> 100 µM (inactive)	> 100 µM (inactive)	> 100 µM (inactive)	> 100 µM (inactive)	> 100 µM (inactive)	–	> 100 µM (inactive)	> 100 µM (inactive)	> 100 µM (inactive)	> 100 µM (inactive)	> 100 µM (inactive)
CC(=O)/C(=C/NC(=S)c1ccncc1)C(=O)Nc1ccccc1C	> 100 µM (inactive)	> 100 µM (inactive)	–	> 100 µM (inactive)	> 100 µM (inactive)	> 100 µM (inactive)	> 100 µM (inactive)	–	> 100 µM (inactive)	> 100 µM (inactive)	> 100 µM (inactive)	> 100 µM (inactive)	> 100 µM (inactive)	> 100 µM (inactive)	> 100 µM (inactive)	> 100 µM (inactive)	> 100 µM (inactive)	> 100 µM (inactive)	> 100 µM (inactive)
N=C(N)NC1C(O)C(O)C(O)C(NC(=N)N)C1O (configuration not stated)	> 100 µM (inactive)	> 100 µM (inactive)	> 100 µM (inactive)	> 100 µM (inactive)	> 100 µM (inactive)	> 100 µM (inactive)	> 100 µM (inactive)	> 100 µM (inactive)	–	> 100 µM (inactive)	> 100 µM (inactive)	> 100 µM (inactive)	> 100 µM (inactive)	> 100 µM (inactive)	> 100 µM (inactive)	> 100 µM (inactive)	> 100 µM (inactive)	> 100 µM (inactive)	> 100 µM (inactive)
O=c1oc2ccccc2c2c(=O)c3ccc(OC/C(=N/O)c4ccc(Cl)cc4)cc3oc12	10.6 µM (inactive)	18.6 µM (inactive)	2 µM (inactive)	14.6 µM (inactive)	5.83 µM (inactive)	20.8 µM (inactive)	3.57 µM (inactive)	5.06 µM (inactive)	17.4 µM (inactive)	18.4 µM (inactive)	17.3 µM (inactive)	24 µM (inactive)	14.2 µM (inactive)	11.7 µM (inactive)	–	12.8 µM (inactive)	–	5.07 µM (inactive)	11.9 µM (inactive)
CC1=NN(c2nc(N)nc(/C(C#N)=C/c3ccccc3O)n2)C(C)(C)C1	19.6 µM (inactive)	15.4 µM (inactive)	51.5 µM (inactive)	20.8 µM (inactive)	24.8 µM (inactive)	19.9 µM (inactive)	15.3 µM (inactive)	30.4 µM (inactive)	17.3 µM (inactive)	16.8 µM (inactive)	15.4 µM (inactive)	26.5 µM (inactive)	18.2 µM (inactive)	23.1 µM (inactive)	–	–	26.7 µM (inactive)	17.1 µM (inactive)	19.4 µM (inactive)
c1cc2c3c(c1)[C@@H]1O[C@@H]1c1cccc(c1-3)[C@@H]1O[C@H]21	14.8 µM (inactive)	18 µM (inactive)	17.7 µM (inactive)	15 µM (inactive)	10.1 µM (inactive)	19.1 µM (inactive)	17.9 µM (inactive)	35 µM (inactive)	> 100 µM (inactive)	16.4 µM (inactive)	16.5 µM (inactive)	17.9 µM (inactive)	16.3 µM (inactive)	> 100 µM (inactive)	20.9 µM (inactive)	–	32.2 µM (inactive)	16.5 µM (inactive)	–
S=C(NCCc1ccccn1)c1nc[nH]c1C(=S)NCCc1ccccn1	57.1 µM (inactive)	30.8 µM (inactive)	40.8 µM (inactive)	31.9 µM (inactive)	36.1 µM (inactive)	> 100 µM (inactive)	41.7 µM (inactive)	–	46.8 µM (inactive)	39.4 µM (inactive)	> 100 µM (inactive)	28.4 µM (inactive)	66.1 µM (inactive)	> 100 µM (inactive)	27.5 µM (inactive)	32.5 µM (inactive)	62.1 µM (inactive)	22.7 µM (inactive)	24.1 µM (inactive)
CC(=O)OCC1OC(Oc2cc(C)c(O)cc2C/C=C(\C)CC/C=C(\C)CC(=O)CC(C)C)C(O)C(OC(C)=O)C1OC(C)=O (configuration not stated)	30.3 µM (inactive)	23.3 µM (inactive)	9.38 µM (inactive)	5.22 µM (inactive)	12.8 µM (inactive)	11.2 µM (inactive)	18 µM (inactive)	9.23 µM (inactive)	–	6.95 µM (inactive)	1.83 µM (inactive)	16.9 µM (inactive)	21.2 µM (inactive)	26.2 µM (inactive)	> 50 µM (inactive)	11 µM (inactive)	16.2 µM (inactive)	13 µM (inactive)	13.7 µM (inactive)
CC1(C)SC2C(NC(=O)C(C(=O)O)c3ccccc3)C(=O)N2C1C(=O)O (configuration not stated)	> 100 µM (inactive)	> 100 µM (inactive)	> 100 µM (inactive)	> 100 µM (inactive)	> 100 µM (inactive)	> 100 µM (inactive)	> 100 µM (inactive)	> 100 µM (inactive)	> 100 µM (inactive)	> 100 µM (inactive)	> 100 µM (inactive)	> 100 µM (inactive)	> 100 µM (inactive)	> 100 µM (inactive)	92 µM (inactive)	> 100 µM (inactive)	> 100 µM (inactive)	> 100 µM (inactive)	–
Cn1c2c(c3ccccc3c1=O)C(=O)c1ccccc1-2	> 100 µM (inactive)	> 100 µM (inactive)	> 100 µM (inactive)	> 100 µM (inactive)	72.9 µM (inactive)	43.4 µM (inactive)	> 100 µM (inactive)	3.07 µM (inactive)	63.8 µM (inactive)	30.8 µM (inactive)	> 100 µM (inactive)	32.9 µM (inactive)	51.8 µM (inactive)	81.7 µM (inactive)	77.6 µM (inactive)	> 100 µM (inactive)	21.4 µM (inactive)	59 µM (inactive)	–
CC(C)=CCOc1cc(NC(=S)c2ccoc2C)ccc1Cl [UC 781]	> 100 µM (inactive)	> 100 µM (inactive)	–	–	> 100 µM (inactive)	35.5 µM (inactive)	> 100 µM (inactive)	9.38 µM (inactive)	57.4 µM (inactive)	> 100 µM (inactive)	> 100 µM (inactive)	34.8 µM (inactive)	45.5 µM (inactive)	> 100 µM (inactive)	16.3 µM (inactive)	> 100 µM (inactive)	> 100 µM (inactive)	> 100 µM (inactive)	> 100 µM (inactive)
